How the values were obtained:
[1] = tested on: Receptor-type tyrosine-protein kinase FLT3 (Homo sapiens), P36888 [N841I]; conditions: Compound concentration 1000.0 nM
[2] = target: Tyrosine-protein kinase JAK1 (Homo sapiens) (UniProt P23458); conditions: Compound concentration 1000.0 nM
[3] = target: Vascular endothelial growth factor receptor 3 (Homo sapiens) (UniProt P35916); conditions: Compound concentration 1000.0 nM
[4] = target: Histamine H3 receptor (Homo sapiens) (UniProt Q9Y5N1); conditions: Compound concentration 10.0 uM
[5] = target: Protein kinase C theta type (Homo sapiens) (UniProt Q04759); conditions: Compound concentration 1000.0 nM
[6] = target: Mitogen-activated protein kinase kinase kinase 9 (Homo sapiens) (UniProt P80192); conditions: Compound concentration 1000.0 nM
[7] = tested on: Mast/stem cell growth factor receptor Kit (Homo sapiens), P10721 [D816H]; conditions: Compound concentration 1000.0 nM
[8] = target: G protein-coupled receptor kinase 3 (Homo sapiens) (UniProt P35626); conditions: Compound concentration 1000.0 nM
[9] = target: Ankyrin repeat and protein kinase domain-containing protein 1 (Homo sapiens) (UniProt Q8NFD2); conditions: Compound concentration 1000.0 nM
[10] = target: Insulin receptor (Homo sapiens) (UniProt P06213); conditions: Compound concentration 1000.0 nM
[11] = tested on: Tyrosine-protein kinase ABL1 (Homo sapiens), P00519 [F317I]; conditions: Compound concentration 1000.0 nM
[12] = target: Mitogen-activated protein kinase kinase kinase 3 (Homo sapiens) (UniProt Q99759); conditions: Compound concentration 1000.0 nM
[13] = target: MAP kinase-interacting serine/threonine-protein kinase 1 (Homo sapiens) (UniProt Q9BUB5); conditions: Compound concentration 1000.0 nM
[14] = target: Calcium/calmodulin-dependent protein kinase type II subunit delta (Homo sapiens) (UniProt Q13557); conditions: Compound concentration 1000.0 nM
[15] = target: Serine/threonine-protein kinase N1 (Homo sapiens) (UniProt Q16512); conditions: Compound concentration 1000.0 nM
[16] = target: Tyrosine-protein kinase BTK (Homo sapiens) (UniProt Q06187); conditions: Compound concentration 1000.0 nM
[17] = tested on: Tyrosine-protein kinase ABL1 (Homo sapiens), P00519 [E255K]; conditions: Compound concentration 1000.0 nM
[18] = target: Rhodopsin kinase GRK1 (Homo sapiens) (UniProt Q15835); conditions: Compound concentration 1000.0 nM
[19] = target: Serine/threonine-protein kinase 38-like (Homo sapiens) (UniProt Q9Y2H1); conditions: Compound concentration 1000.0 nM
[20] = target: Serine/threonine-protein kinase MAK (Homo sapiens) (UniProt P20794); conditions: Compound concentration 1000.0 nM
[21] = target: Interferon-induced, double-stranded RNA-activated protein kinase (Homo sapiens) (UniProt P19525); conditions: Compound concentration 1000.0 nM
[22] = target: Tyrosine-protein kinase JAK2 (Homo sapiens) (UniProt O60674); conditions: Compound concentration 1000.0 nM
[23] = tested on: Proto-oncogene tyrosine-protein kinase receptor Ret (Homo sapiens), P07949 [V804M]; conditions: Compound concentration 1000.0 nM
[24] = target: Calcium/calmodulin-dependent protein kinase type 1D (Homo sapiens) (UniProt Q8IU85); conditions: Compound concentration 1000.0 nM
[25] = target: Wee1-like protein kinase 2 (Homo sapiens) (UniProt P0C1S8); conditions: Compound concentration 1000.0 nM
[26] = target: Alpha-2A adrenergic receptor (Homo sapiens) (UniProt P08913); conditions: Compound concentration 10.0 uM
[27] = target: 5-hydroxytryptamine receptor 1E (Homo sapiens) (UniProt P28566); conditions: Compound concentration 10.0 uM
[28] = tested on: Phosphatidylinositol 4,5-bisphosphate 3-kinase catalytic subunit alpha isoform (Homo sapiens), P42336 [E545K]; conditions: Compound concentration 1000.0 nM
[29] = target: Muscarinic acetylcholine receptor M5 (Homo sapiens) (UniProt P08912); conditions: Compound concentration 10.0 uM
[30] = target: Receptor-type tyrosine-protein kinase FLT3 (Homo sapiens) (UniProt P36888); conditions: Compound concentration 1000.0 nM
[31] = target: G protein-coupled receptor kinase 4 (Homo sapiens) (UniProt P32298); conditions: Compound concentration 1000.0 nM
[32] = target: Protein kinase C epsilon type (Homo sapiens) (UniProt Q02156); conditions: Compound concentration 1000.0 nM
[33] = target: Mitogen-activated protein kinase kinase kinase 20 (Homo sapiens) (UniProt Q9NYL2); conditions: Compound concentration 1000.0 nM
[34] = target: Tyrosine-protein kinase Lck (Homo sapiens) (UniProt P06239); conditions: Compound concentration 1000.0 nM
[35] = target: Phosphatidylinositol 5-phosphate 4-kinase type-2 gamma (Homo sapiens) (UniProt Q8TBX8); conditions: Compound concentration 1000.0 nM
[36] = target: Phosphatidylinositol 4,5-bisphosphate 3-kinase catalytic subunit alpha isoform (Homo sapiens) (UniProt P42336); conditions: Compound concentration 1000.0 nM
[37] = tested on: Tyrosine-protein kinase ABL1 (Homo sapiens), P00519 [F317L]; conditions: Compound concentration 1000.0 nM
[38] = target: RAC-alpha serine/threonine-protein kinase (Homo sapiens) (UniProt P31749); conditions: Compound concentration 1000.0 nM
[39] = tested on: Tyrosine-protein kinase ABL1 (Homo sapiens), P00519 [Q252H]; conditions: Compound concentration 1000.0 nM
[40] = tested on: ALK tyrosine kinase receptor (Homo sapiens), Q9UM73 [L1196M]; conditions: Compound concentration 1000.0 nM
[41] = target: Glycogen synthase kinase-3 alpha (Homo sapiens) (UniProt P49840); conditions: Compound concentration 1000.0 nM
[42] = target: Atypical kinase COQ8B, mitochondrial (Homo sapiens) (UniProt Q96D53); conditions: Compound concentration 1000.0 nM
[43] = target: Cyclin-dependent kinase 3 (Homo sapiens) (UniProt Q00526); conditions: Compound concentration 1000.0 nM
[44] = target: Sigma non-opioid intracellular receptor 1 (Homo sapiens) (UniProt Q99720); conditions: Compound concentration 10.0 uM
[45] = target: Myosin-IIIa (Homo sapiens) (UniProt Q8NEV4); conditions: Compound concentration 1000.0 nM

Tyrosine-protein kinase Lck (Homo sapiens), sequence (P06239 2-509 limits assumed): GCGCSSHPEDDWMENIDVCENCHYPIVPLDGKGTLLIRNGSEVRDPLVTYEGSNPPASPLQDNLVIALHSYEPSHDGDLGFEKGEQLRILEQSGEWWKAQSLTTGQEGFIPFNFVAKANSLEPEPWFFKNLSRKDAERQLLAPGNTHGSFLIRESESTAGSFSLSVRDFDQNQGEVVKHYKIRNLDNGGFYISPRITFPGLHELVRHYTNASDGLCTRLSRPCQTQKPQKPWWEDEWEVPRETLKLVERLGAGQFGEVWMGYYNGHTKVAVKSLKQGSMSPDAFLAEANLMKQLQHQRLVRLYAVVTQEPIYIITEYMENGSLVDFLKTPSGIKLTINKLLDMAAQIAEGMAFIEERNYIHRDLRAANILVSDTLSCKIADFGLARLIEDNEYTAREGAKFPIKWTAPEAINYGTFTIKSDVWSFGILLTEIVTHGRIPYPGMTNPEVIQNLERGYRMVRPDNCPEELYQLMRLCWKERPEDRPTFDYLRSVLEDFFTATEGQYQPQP
Calcium/calmodulin-dependent protein kinase type II subunit delta (Homo sapiens), sequence (Q13557 whole entry): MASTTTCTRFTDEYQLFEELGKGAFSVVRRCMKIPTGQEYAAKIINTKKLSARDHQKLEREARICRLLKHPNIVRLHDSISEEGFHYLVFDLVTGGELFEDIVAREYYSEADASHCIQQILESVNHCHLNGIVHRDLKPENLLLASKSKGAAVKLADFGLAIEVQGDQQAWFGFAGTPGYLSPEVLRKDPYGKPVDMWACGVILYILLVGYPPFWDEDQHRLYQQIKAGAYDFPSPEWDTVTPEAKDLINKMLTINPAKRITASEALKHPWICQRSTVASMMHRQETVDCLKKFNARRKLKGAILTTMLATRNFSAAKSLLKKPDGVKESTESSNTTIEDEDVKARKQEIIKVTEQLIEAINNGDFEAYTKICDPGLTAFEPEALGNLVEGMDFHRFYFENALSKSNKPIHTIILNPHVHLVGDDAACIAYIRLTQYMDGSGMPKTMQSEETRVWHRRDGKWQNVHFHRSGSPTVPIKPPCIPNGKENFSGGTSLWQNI
RAC-alpha serine/threonine-protein kinase (Homo sapiens), sequence (P31749 whole entry): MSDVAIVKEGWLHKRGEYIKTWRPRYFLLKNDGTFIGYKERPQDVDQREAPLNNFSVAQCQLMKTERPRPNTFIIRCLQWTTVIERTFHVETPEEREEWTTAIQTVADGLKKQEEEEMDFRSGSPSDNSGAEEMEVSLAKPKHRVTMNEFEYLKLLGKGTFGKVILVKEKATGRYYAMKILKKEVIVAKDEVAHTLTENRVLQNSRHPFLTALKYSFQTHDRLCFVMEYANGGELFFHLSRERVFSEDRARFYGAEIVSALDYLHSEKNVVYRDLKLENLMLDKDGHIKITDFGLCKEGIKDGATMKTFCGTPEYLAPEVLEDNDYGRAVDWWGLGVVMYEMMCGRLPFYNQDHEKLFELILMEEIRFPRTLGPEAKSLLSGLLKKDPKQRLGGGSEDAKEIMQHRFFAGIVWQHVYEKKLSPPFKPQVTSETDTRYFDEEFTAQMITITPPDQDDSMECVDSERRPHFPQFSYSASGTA
Vascular endothelial growth factor receptor 3 (Homo sapiens), sequence (P35916 whole entry): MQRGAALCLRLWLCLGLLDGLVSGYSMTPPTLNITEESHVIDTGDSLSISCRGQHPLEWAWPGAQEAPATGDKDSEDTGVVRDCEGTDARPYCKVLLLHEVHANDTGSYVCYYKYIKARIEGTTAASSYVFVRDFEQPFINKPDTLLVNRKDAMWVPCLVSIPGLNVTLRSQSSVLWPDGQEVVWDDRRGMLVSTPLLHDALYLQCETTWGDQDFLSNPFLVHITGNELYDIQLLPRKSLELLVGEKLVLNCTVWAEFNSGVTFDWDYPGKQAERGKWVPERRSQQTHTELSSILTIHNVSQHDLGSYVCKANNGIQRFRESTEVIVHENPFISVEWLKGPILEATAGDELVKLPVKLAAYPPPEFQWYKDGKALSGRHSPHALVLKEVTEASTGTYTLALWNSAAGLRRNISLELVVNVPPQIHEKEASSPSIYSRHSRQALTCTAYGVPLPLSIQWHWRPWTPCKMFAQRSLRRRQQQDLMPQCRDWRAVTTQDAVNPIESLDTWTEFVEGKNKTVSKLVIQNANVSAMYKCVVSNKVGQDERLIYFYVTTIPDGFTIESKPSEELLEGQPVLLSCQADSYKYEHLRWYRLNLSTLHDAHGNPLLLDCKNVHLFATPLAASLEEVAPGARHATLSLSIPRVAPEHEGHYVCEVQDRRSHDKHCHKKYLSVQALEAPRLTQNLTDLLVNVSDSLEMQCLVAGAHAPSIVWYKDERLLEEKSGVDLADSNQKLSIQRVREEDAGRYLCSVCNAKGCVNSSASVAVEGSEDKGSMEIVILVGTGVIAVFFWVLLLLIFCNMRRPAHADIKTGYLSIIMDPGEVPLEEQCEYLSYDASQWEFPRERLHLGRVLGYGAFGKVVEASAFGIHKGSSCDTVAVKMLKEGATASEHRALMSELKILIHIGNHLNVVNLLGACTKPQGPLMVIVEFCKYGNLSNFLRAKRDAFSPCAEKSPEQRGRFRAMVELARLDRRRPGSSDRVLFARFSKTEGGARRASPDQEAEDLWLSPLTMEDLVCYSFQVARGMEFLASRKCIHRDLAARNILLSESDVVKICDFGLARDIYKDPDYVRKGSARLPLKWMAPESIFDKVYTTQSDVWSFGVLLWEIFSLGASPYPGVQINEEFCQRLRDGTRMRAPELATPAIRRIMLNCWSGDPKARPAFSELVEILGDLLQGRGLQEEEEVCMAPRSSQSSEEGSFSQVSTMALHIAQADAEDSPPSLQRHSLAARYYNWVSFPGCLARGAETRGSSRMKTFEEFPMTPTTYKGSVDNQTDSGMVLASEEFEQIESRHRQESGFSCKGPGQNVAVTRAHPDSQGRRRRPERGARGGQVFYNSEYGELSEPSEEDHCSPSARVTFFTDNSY
Tyrosine-protein kinase JAK1 (Homo sapiens), sequence (P23458 whole entry): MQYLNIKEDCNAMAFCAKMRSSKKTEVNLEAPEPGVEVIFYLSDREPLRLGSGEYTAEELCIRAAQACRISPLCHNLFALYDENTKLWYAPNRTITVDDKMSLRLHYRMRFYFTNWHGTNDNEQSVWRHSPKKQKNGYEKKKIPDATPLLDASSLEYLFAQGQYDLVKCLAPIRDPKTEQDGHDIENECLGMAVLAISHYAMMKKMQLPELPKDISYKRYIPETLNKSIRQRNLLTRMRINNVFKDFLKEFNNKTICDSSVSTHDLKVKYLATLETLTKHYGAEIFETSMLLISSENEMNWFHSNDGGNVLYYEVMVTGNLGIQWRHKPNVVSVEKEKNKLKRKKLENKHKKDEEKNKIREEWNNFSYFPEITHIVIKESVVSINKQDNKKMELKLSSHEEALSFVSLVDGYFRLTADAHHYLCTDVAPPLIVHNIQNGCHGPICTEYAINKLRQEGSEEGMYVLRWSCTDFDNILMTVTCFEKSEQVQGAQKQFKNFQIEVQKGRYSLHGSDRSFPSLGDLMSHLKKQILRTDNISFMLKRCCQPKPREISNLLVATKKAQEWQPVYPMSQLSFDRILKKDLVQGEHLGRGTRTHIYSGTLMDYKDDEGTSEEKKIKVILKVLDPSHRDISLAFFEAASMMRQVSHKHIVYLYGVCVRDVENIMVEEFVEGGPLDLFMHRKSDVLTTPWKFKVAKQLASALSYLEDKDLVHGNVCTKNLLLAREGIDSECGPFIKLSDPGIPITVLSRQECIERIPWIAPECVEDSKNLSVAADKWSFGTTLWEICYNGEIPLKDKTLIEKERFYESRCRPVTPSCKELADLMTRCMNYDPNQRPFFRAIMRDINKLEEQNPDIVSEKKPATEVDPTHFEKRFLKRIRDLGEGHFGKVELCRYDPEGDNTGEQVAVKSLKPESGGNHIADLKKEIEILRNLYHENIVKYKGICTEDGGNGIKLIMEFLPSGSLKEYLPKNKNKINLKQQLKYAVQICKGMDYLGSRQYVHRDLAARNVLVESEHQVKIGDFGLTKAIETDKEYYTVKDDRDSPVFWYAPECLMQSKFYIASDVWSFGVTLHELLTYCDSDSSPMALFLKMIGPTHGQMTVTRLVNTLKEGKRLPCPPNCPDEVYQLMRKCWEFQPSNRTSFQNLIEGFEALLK
Glycogen synthase kinase-3 alpha (Homo sapiens), sequence (P49840 2-483 limits assumed): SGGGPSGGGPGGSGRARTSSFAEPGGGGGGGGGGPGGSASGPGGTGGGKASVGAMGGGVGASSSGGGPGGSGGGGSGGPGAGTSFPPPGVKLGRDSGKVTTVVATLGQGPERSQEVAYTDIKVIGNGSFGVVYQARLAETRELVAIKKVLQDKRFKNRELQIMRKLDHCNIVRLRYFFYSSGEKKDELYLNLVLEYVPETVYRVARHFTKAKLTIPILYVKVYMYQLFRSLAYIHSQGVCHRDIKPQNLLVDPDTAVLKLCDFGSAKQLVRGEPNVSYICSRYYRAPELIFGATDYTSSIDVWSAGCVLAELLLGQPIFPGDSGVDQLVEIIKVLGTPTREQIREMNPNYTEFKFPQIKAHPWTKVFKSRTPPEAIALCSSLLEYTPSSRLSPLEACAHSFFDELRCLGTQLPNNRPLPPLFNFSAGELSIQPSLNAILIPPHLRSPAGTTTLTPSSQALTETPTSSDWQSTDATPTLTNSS
Calcium/calmodulin-dependent protein kinase type 1D (Homo sapiens), sequence (Q8IU85 whole entry, looked up): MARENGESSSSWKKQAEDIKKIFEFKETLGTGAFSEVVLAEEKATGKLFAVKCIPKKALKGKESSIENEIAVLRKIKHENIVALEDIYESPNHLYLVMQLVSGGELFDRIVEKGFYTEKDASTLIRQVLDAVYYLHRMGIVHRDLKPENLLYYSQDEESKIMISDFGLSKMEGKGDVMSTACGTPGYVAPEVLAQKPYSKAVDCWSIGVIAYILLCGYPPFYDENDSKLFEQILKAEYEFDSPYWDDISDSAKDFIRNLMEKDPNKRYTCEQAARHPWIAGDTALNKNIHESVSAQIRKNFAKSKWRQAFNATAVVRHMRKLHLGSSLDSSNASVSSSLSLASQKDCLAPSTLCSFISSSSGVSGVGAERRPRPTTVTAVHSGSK

Cc1nc(N2CC[C@@H](O)C2)ncc1-c1cc(C(F)(F)F)cc2[nH]ncc12 [TP-004]
inactive: residual activity [1] 88% | residual activity [2] 78% | residual activity [3] 100% | inhibition [4] 28.6% | residual activity [5] 100% | residual activity [6] 100% | residual activity [7] 53% | residual activity [8] 87% | residual activity [9] 85% | residual activity [10] 100% | residual activity [11] 87% | residual activity [12] 82% | residual activity [13] 61% | residual activity [14] 100% | residual activity [15] 100% | residual activity [16] 63% | residual activity [17] 77% | residual activity [18] 52% | residual activity [19] 87% | residual activity [20] 100% | residual activity [21] 100% | residual activity [22] 61% | residual activity [23] 96% | residual activity [24] 100% | residual activity [25] 100% | inhibition [26] 10.6% | inhibition [27] -5.65% | residual activity [28] 56% | inhibition [29] 0.643% | residual activity [30] 67% | residual activity [31] 86% | residual activity [32] 88% | residual activity [33] 100% | residual activity [34] 100% | residual activity [35] 100% | residual activity [36] 100% | residual activity [37] 58% | residual activity [38] 100% | residual activity [39] 91% | residual activity [40] 98% | residual activity [41] 54% | residual activity [42] 100% | residual activity [43] 83% | inhibition [44] 45.5% | residual activity [45] 100%

From ChEMBL document CHEMBL4507303, “Data for DCP probe TP-004” (2021)
